Measured values published in the SangsterLogP compilation.

Experiment: not given

| SMILES | logP |
| --- | --- |
| CNC(=O)Oc1cccc([N+](=O)[O-])c1 | 1.37 |
| CNC(=O)Oc1ccc(I)cc1 | 2.34 |
| Cc1ccc(OC(=O)N(C)C)cc1 | 2.1 |
| CNC(=O)Oc1ccc(F)cc1 | 1.35 |
| CCOc1cccc(OC(=O)NC)c1 | 1.82 |
| CNC(=O)Oc1cccc(C(C)=O)c1 | 0.97 |
| CNC(=O)Oc1cccc(C#N)c1 | 1.01 |
| CNC(=O)Oc1ccc(C)cc1 | 1.73 |
| CCC(C)c1ccc(OC(=O)N(C)C)cc1 (stereo not drawn) | 3.6 |
| CNC(=O)Oc1cccc(N(C)C)c1 | 1.64 |
| CNC(=O)Oc1cccc(OC)c1 | 1.34 |
| CCc1ccc(OC(=O)NC)cc1 | 2.27 |
| CCOc1ccc(OC(=O)NC)cc1 | 1.75 |
| CNC(=O)Oc1ccc(OC)cc1 | 1.23 |
| CC(C)c1ccc(OC(=O)N(C)C)cc1 | 3.07 |
| CCC(=O)c1cccc(OC(=O)NC)c1 | 1.51 |
| CNC(=O)Oc1cccc(I)c1 | 2.33 |
| CN(C)C(=O)Oc1ccc(F)cc1 | 1.65 |
| CN(C)C(=O)Oc1ccc([N+](=O)[O-])cc1 | 1.54 |
| CN(C)C(=O)Oc1cccc(Cl)c1 | 2.26 |
| CC(=O)c1ccc(OC(=O)N(C)C)cc1 | 1.23 |
| CCc1ccc(OC(=O)N(C)C)cc1 | 2.58 |
| CNC(=O)Oc1cccc(C)c1 | 1.73 |
| CCc1cccc(OC(=O)NC)c1 | 2.23 |
| CN(C)C(=O)Oc1ccc(Cl)cc1 | 2.23 |

Experiment: method code SF-HPLC, from DOI: 10.1248/cpb.44.1338

| SMILES | logP |
| --- | --- |
| CN(C)C(=O)Oc1cccc(F)c1 | 1.75 |
| CN(C)C(=O)Oc1cccc(N(C)C)c1 | 1.93 |
| CCc1cccc(OC(=O)N(C)C)c1 | 2.47 |
| CN(C)C(=O)Oc1ccc(C#N)cc1 | 1.21 |
| CN(C)C(=O)Oc1cccc([N+](=O)[O-])c1 | 1.56 |
| CN(C)C(=O)Oc1ccc(Br)cc1 | 2.46 |
| CCCc1ccc(OC(=O)N(C)C)cc1 | 3.15 |
| CN(C)C(=O)Oc1cccc(C#N)c1 | 1.23 |
